Measured values taken from article PMC7044277 (Nature Communications, 2020).
Where “and” joins values, the source holds several entries; their conditions need not be identical. Equal values may be shown once.

Legend:
320 non-olfactory GPCRs = assay type: cell-based; parameters: GPCRome screening signal at PTGIR / GPCRome screening signal at PTH1R / GPCRome screening signal at PTH2R / GPCRome screening signal at QRFP / GPCRome screening signal at RXFP2 / GPCRome screening signal at RXFP3 / GPCRome screening signal at RXFP4 / GPCRome screening signal at S1PR2 / GPCRome screening signal at S1PR3 / GPCRome screening signal at S1PR4 / GPCRome screening signal at S1PR5 / GPCRome screening signal at SCTR / GPCRome screening signal at SSTR2 / GPCRome screening signal at SSSTR / GPCRome screening signal at SSTR4 / GPCRome screening signal at SSTR5 / GPCRome screening signal at SUCNR1 / GPCRome screening signal at TA1 / GPCRome screening signal at TAAR2 / GPCRome screening signal at TAAR5 / GPCRome screening signal at TAAR6 / GPCRome screening signal at TAAR8 / GPCRome screening signal at TACR1 / GPCRome screening signal at TACR2 / GPCRome screening signal at TACR3 / GPCRome screening signal at TBXA2R / GPCRome screening signal at TSHR / GPCRome screening signal at UTS2R / GPCRome screening signal at VIPR2 / GPCRome screening signal at GPR68 no V2 Tail / GPCRome screening signal at GRM2 / GPCRome screening signal at GRM3: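 fold over basal response of each receptor without drug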; details: Fig_5f, single replicate values
5HT4 = biological target: T1, 5HT4 (Homo sapiens, UniProt Q13639); test: β-arrestin2 recruitment (Tango); assay type: cell-based; details: Fig_S10n, drug alone
T1 construct: expressed in transfected cells; host or cells: HTLA cells expressing TEV-fused β-arrestin2

[1] = tested on: serotonin receptor (subtype not given; reference agonist serotonin); test: β-arrestin2 recruitment (Tango), agonist activity, source data Fig_S10m; assay type: cell-based, human; details: drug alone

T1 sequence (Q13639 whole entry, the tested form may be a part): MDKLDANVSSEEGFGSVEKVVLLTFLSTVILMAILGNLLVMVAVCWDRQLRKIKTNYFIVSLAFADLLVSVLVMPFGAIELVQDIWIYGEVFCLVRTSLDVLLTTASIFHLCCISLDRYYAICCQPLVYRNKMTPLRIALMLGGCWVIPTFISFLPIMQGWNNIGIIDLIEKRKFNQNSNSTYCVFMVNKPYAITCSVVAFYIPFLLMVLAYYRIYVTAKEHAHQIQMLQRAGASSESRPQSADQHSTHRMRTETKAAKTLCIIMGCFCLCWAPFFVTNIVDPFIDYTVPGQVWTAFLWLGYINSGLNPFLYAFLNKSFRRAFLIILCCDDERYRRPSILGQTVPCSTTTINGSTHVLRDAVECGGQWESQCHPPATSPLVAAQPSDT

CCOc1ccccc1CCC(C)NCC1(O)CCCCC1.Cl (racemic) [Fig_5f]
GPCRome screening signal at GPR68 no V2 Tail (320 non-olfactory GPCRs; receptor GPR68 no V2 Tail): 1.613 and 0.9285 and 0.7993 and 0.365 | GPCRome screening signal at QRFP (320 non-olfactory GPCRs; receptor QRFP): 1.818 and 1.297 and 0.5847 and 0.9504 | GPCRome screening signal at SSSTR (320 non-olfactory GPCRs; receptor SSSTR): 1.07 and 0.3317 and 0.4095 and 0.9006

NCCc1c[nH]c2ccc(O)cc12 [serotonin]
β-arrestin2 recruitment response (dose-response source data, replicate values) (5HT4; Log[Drug] -6.52): 4.364 and 3.213 and 1.27 and 4.689 and 5.849 and 4.639 and 0.7041 and 1.028 and 0.8286 | β-arrestin2 recruitment response (dose-response source data, replicate values) (5HT4; Log[Drug] -7): 0.4502 and 1.04 and 0.7749 and 1.703 and 3.757 and 0.2045 and 0.7898 | β-arrestin2 recruitment response (dose-response source data, replicate values) (5HT4; Log[Drug] -7.52): 0.2639 and 1.123 and 0.6731 and 1.44 and 0.8323 and -0.173 and -0.1455 and 0.1779 | β-arrestin2 recruitment response (dose-response source data, replicate values) (5HT4; Log[Drug] -8): 0.909 and 1.368 and 1.768 and 1.945 and 1.002 and 4.528 and -0.04204 and 0.2773 and -0.04931 | β-arrestin2 recruitment response (dose-response source data, replicate values) (5HT4; Log[Drug] -8.52): 1.014 and 0.4607 and 1.27 and 2.026 and 2.149 and 0.7135 and 0.536 | β-arrestin2 recruitment response (dose-response source data, replicate values) (5HT4; Log[Drug] -9): 4.112 and 0.5135 and 0.7781 and 0.7219 and 2.151 and -0.2021 and -0.04689 and 0.1787 | β-arrestin2 recruitment response (dose-response source data, replicate values) (5HT4; Log[Drug] -9.52): -0.1745 and 0.2987 and 0.5551 and 1.654 and 2.192 and 1.098 and -0.3371 and 0.1099 | β-arrestin2 recruitment response (dose-response source data, replicate values) (5HT4; Log[Drug] -10): 0.07451 and 0.7799 and 1.035 and 0.7688 and 1.653 and 0.865 and -0.1787 and 0.1471 | β-arrestin2 recruitment response (dose-response source data, replicate values) (5HT4; Log[Drug] -10.52): -0.001242 and 0.2372 and 0.7047 and -0.005208 and 0.949 and 0.8156 and -0.3363 and -0.2741 | β-arrestin2 recruitment response (dose-response source data, replicate values) (5HT4; Log[Drug] -11): 0.09934 and 0.2831 and 0.9059 and 0.201 and 0.5729 and -0.1083 and 0.6362 and -0.2773 | β-arrestin2 recruitment response (dose-response source data, replicate values) (5HT4; Log[Drug] -11.52): -0.1788 and 1.011 and 0.1838 and 2.165 and 0.3594 and 0.526 and -0.2336 and -0.308 and 0.3767 | β-arrestin2 recruitment response (dose-response source data, replicate values) (5HT4; Log[Drug] -12): 0.2813 and -0.1521 and 0.7458 and 0.6208 and 0.6615 and -0.1358 and -0.3662 | response, Fig_S10m, replicate values ([1]; Log[Drug] -10): 3.734 and -1.123 and -0.8977 and 1.459 and 2.0512 and -0.1515 and 0.5699 and -0.8279 and -0.6726 | response, Fig_S10m, replicate values ([1]; Log[Drug] -10.52): -0.9054 and 0.7992 and -0.375 and 2.687 and -0.4536 and -1.101 and 0.7884 and 1.319 and 1.427 | response, Fig_S10m, replicate values ([1]; Log[Drug] -11): -0.3557 and -1.309 and -0.2288 and 0.2231 and 0.02755 and -0.2525 and -0.3422 and 5.614 and 6.013 | response, Fig_S10m, replicate values ([1]; Log[Drug] -11.52): -1.125 and -2.817 and 2.535 and -0.5885 and 3.063 and -0.9769 and 1.62 and 5.903 and -1.503 | response, Fig_S10m, replicate values ([1]; Log[Drug] -12): -0.7563 and 2.962 and 1.0473 and 9.322 and 7.524 and 1.413 and -1.187 and 0.2988 and 0.8898
